compound: C1CCC(CC1)N(CCNCCC2=C3C(=C(C=C2)O)NC(=O)CO3)C(=O)CCNCCC4=CC(=C(C=C4)Cl)Cl [AZ505] + C[C@]1(O)C[C@@H](c2nc(-c3ccc4ccc(-c5ccccc5)nc4c3)c3c(N)nccn32)C1 [Linsitinib] (partner 1 µM); assay: relative viability (nuclei count vs DMSO), 5 days (fraction); higher = more cells survive; conditions: first compound 8 µM
Summary of the method: (§1)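 Relative viability is defined as nuclei in treated wells over nuclei in vehicle wells. Duplicate plates were run and medians reported. Lung cancer cell lines in 1536-well plates were dosed by pin tool one day after seeding, with one drug or with a fixed anchor-drug dose plus five library-drug doses (not always all listed) in √10 steps, and nuclei were counted after 5 days.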

Cell Line	relative viability
PC-14	0.951

compound: C1CCC(CC1)N(CCNCCC2=C3C(=C(C=C2)O)NC(=O)CO3)C(=O)CCNCCC4=CC(=C(C=C4)Cl)Cl [AZ505] + CS(=O)(=O)CCNCc1ccc(-c2ccc3ncnc(Nc4ccc(OCc5cccc(F)c5)c(Cl)c4)c3c2)o1 [Lapatinib] (partner 2 µM); assay: as above; conditions: first compound 0.08 µM
Summary of the method: as §1

Cell Line	relative viability
HCC-44	0.926
LU99A	0.915
BEN	0.645
HARA	0.636
NCI-H322M	0.535
LCLC-97TM1	1.03
NCI-H2009	0.864
A-427	1.1
NCI-H661	0.468
NCI-H1734	0.991
NCI-H460	0.874
NCI-H2347	0.555
SW 1573	1.03
201T	1
NCI-H1915	1.01
HCC-827	0.218

Cell Line	relative viability
LXF-289	0.876
NCI-H23	1.02
NCI-H647	1.03
CAL-12T	0.637
NCI-H1651	0.781
EPLC-272H	0.785
NCI-H2228	1.09
NCI-H1792	0.822
NCI-H1355	0.865
NCI-H3122	1.01
NCI-H1437	0.765
NCI-H1755	1.02
NCI-H2023	0.674
HCC-15	0.741
PC-14	0.316

same assay, conditions: first compound 0.253 µM

Cell Line	relative viability
HCC-44	1.09
LU99A	0.965
BEN	0.69
HARA	0.501
HCC-78	0.643
NCI-H322M	0.539
LCLC-97TM1	0.948
NCI-H2009	0.928
A-427	1.07
NCI-H661	0.502
NCI-H1734	1
NCI-H460	1.1
NCI-H2347	0.64
SW 1573	1.04
201T	1.04
NCI-H1915	1.07
HCC-827	0.191
NCI-H647	1.11
CAL-12T	0.534
NCI-H1651	0.709
EPLC-272H	0.817
NCI-H2228	0.957
NCI-H1792	0.846
NCI-H1355	0.944
NCI-H3122	1.03
NCI-H1437	0.729
NCI-H1755	0.99
NCI-H2023	0.822
HCC-15	0.809
PC-14	0.296

same assay, conditions: first compound 0.8 µM

Cell Line	relative viability
HCC-44	0.974
LU99A	0.931
BEN	0.728
HARA	0.651
HCC-78	0.645
NCI-H322M	0.611
LCLC-97TM1	1.28
NCI-H2009	1.07
A-427	0.961
NCI-H661	0.447
NCI-H1734	1.02
NCI-H460	0.877
NCI-H2347	0.607
SW 1573	1.15
201T	0.957
NCI-H1915	0.985

Cell Line	relative viability
HCC-827	0.171
LXF-289	0.869
NCI-H23	0.984
NCI-H647	1.01
CAL-12T	0.537
NCI-H1651	0.833
EPLC-272H	0.867
NCI-H2228	0.939
NCI-H1792	0.861
NCI-H1355	0.95
NCI-H3122	1.04
NCI-H1437	0.757
NCI-H1755	1.09
NCI-H2023	0.845
HCC-15	0.861
PC-14	0.336

same assay, conditions: first compound 2.53 µM

Cell Line	relative viability
HCC-44	1.11
LU99A	1.04
BEN	0.718
HARA	0.802
HCC-78	1.2
NCI-H322M	0.475
LCLC-97TM1	1.06
NCI-H2009	0.665
A-427	1.03
NCI-H661	0.477
NCI-H1734	1.01
NCI-H460	0.922
NCI-H2347	0.508
SW 1573	1.17
201T	1.04
NCI-H1915	1.05

Cell Line	relative viability
HCC-827	0.199
LXF-289	0.857
NCI-H23	1.23
NCI-H647	1.03
CAL-12T	0.625
NCI-H1651	0.784
EPLC-272H	0.871
NCI-H2228	0.885
NCI-H1792	0.852
NCI-H1355	0.855
NCI-H3122	0.981
NCI-H1437	0.738
NCI-H1755	1.09
NCI-H2023	0.917
HCC-15	0.805
PC-14	0.411

same assay, conditions: first compound 8 µM

Cell Line	relative viability
HCC-44	1.06
LU99A	1.01
BEN	1.02
HARA	0.681
HCC-78	0.86
NCI-H322M	0.576
LCLC-97TM1	1.3
NCI-H2009	0.86
A-427	0.998
NCI-H661	0.499
NCI-H1734	1
NCI-H460	1.07
NCI-H2347	0.772
SW 1573	1.09
201T	1.01
NCI-H1915	1.04

Cell Line	relative viability
HCC-827	0.191
LXF-289	0.869
NCI-H23	1.15
NCI-H647	1.17
CAL-12T	0.728
NCI-H1651	0.796
EPLC-272H	0.956
NCI-H2228	1.11
NCI-H1792	0.99
NCI-H1355	0.995
NCI-H3122	1.09
NCI-H1437	0.831
NCI-H1755	1.03
NCI-H2023	0.815
HCC-15	0.871
PC-14	0.319
